Structures can show the parent of a compound that is named as a salt. Where two headings read alike, the source gives them in different places.

Type in all cases: cell-based
The subject of experiment [1] is basophils in whole human peripheral blood. The experiment can be described thus: Basophil ionomycin activation: histamine release assay. As for the experimental part:
Assays for ionomycin-induced basophil cell degranulation were carried out as described for the Basophil IgE or Dustmite Activation Assay (Section 6.4.6, supra), with the exception that following incubation with compound, cells were stimulated with 20 μl of 2 μM ionomycin.

For experiment [2], the system named is ionophore-induced degranulation of mast and/or basophil cells. In words: Ionophore (ionomycin or A23187)-induced degranulation counter screen. The note with it: high density BMMC, ionomycin activation, hexosaminidase release, read-out: BMMC Ionomycin Hexos. IC50. The text has this: In addition to the FcεRI or FcγRI degranulation pathways discussed above, degranulation of mast and/or basophil cells can be induced by other agents. For example, ionomycin, a calcium ionophore that bypasses the early FcεRI or FcγRI signal transduction machinery of the cell, directly induces a calcium flux that triggers degranulation. Referring again to FIG. 2, activated PLCγ initiates pathways that lead to, among other things, calcium ion mobilization and subsequent degranulation. As illustrated, this Ca^2+ mobilization is triggered late in the FcεRI signal transduction pathway. […] Other ionophores that induce degranulation in this manner include A23187. The ability of granulation-inducing ionophores such as ionomycin to bypass the early stages of the FcεRI and/or FcγRI signaling cascades may be used as a counter screen to identify active compounds of the invention that specifically exert their degranulation-inhibitory activity by blocking or inhibiting the early FcεRI or FcγRI signaling cascades, as discussed above.
Assays suitable for determining the IC50 of ionophore-induced degranulation include any of the previously-described degranulation assays, with the modification that the cells are stimulated or activated with a degranulation-inducing calcium ionophore such as ionomycin or A23187 (A.G. Scientific, San Diego, Calif.) instead of anti-IgE antibodies or an IgE-specific allergen. Specific assays for assessing the ability of a particular 2,4-pyrimidinediamine compound of the invention to inhibit ionophore-induced degranulation are provided in the Examples section.
On the technique in general: Counterscreens check selectivity or assay interference.

Experiment [3] has as its system basophils in whole human peripheral blood. In words: Basophil IgE activation: histamine release assay. The note with it: anti-IgE activation. As for the experimental part: The basophil activation assay was carried out using whole human peripheral blood from donors allergic to dust mites with the majority of the red blood cells removed by dextran sedimentation. Human peripheral blood was mixed 1:1 with 3% dextran T500 and RBCs were allowed to settle for 20-25 min. The upper fraction was diluted with 3 volumes of D-PBS and cells were spun down for 10 min at 1500 rpm, RT. Supernatant was aspirated and cells were washed in an equal volume MT-buffer. Finally, cells were resuspended in MT-buffer containing 0.5% DMSO in the original blood volume. 80 uL cells were mixed with 20 uL compound in the presence of 0.5% DMSO, in triplicate, in a V-bottom 96-well tissue culture plate. A dose range of 8 compound concentrations was tested resulting in a 10-point dose response curve including maximum (stimulated) and minimum (unstimulated) response. […] The cells were stimulated for 30 minutes at 37° C., 5% CO2. The plate was spun for 10 min at 1500 rpm at room temperature and 80 uL the supernatant was harvested for histamine content analysis using the histamine ELISA kit supplied by Immunotech. The ELISA was performed according to supplier's instructions.

Experiment [4] has as its system bone marrow derived mast cells (BMMC). In words: BMMC high cell density IgE activation: degranulation (hexosiminidase, histamine), leukotriene (LTC4) and cytokine (TNFalpha, IL-6) assays. The conditions noted are these: Mus musculus, anti-IgE activation, hexosaminidase release, read-out: BMMC anti-IgE hexos IC50. As for the experimental part: After sensitizing, cells are counted, pelleted (1000 rpm, 5-10 minutes), and resuspended at 1-3×10^6 cells/ml in MT buffer. Add 100 ul of cell suspension to each well and 100 ul of compound dilutions. The final vehicle concentration is 0.5% DMSO. Incubate at 37° C. (5% CO2) for 1 hour. After 1 hour of compound treatment, stimulate cells with 6× stimulus (60 ng/ml DNP-BSA). Mix wells with the cells and allow plates to incubate at 37° C. (5% CO2) for one hour. After 1 hour incubation, pellet cells (10 minutes, 1000 RPM) and collect 200 ul per well of the supernatant, being careful not to disturb pellet, and transfer to a clean tube or 96-well plate. Place the supernatant plate on ice. During the 4-5 hour step (see next) perform the hexosiminidase assay. Resuspend cell pellet in 240 ul WEI-conditioned media containing 0.5% DMSO and corresponding concentration of compound. Incubate BMMC cells for 4-5 hours at 37° C. (5% CO2). After incubation, pellet cells (1000 RPM, 10 minutes) and collect 225 ul per well and place in −80° C. until ready to perform ELISAS. ELISAS are performed on appropriately diluted samples (determined empirically for each donor cell population so that the sample measurement falls within the standard curve) following the supplier's instructions.
Add 50 uL of BMMC cell supernatant (see above) to the hexoseaminidase substrate, place at 37° C. for 30 minutes and read the plate at 5, 10, 15, and 30 minutes on a spectrophotometer.

Experiment [5] concerns cultured human mast cells (CHMC). The experiment can be described thus: CHMC low cell density ionomycin activation: tryptase assay. The note with it: Homo sapiens, Mast cell, Low Density CHMC, ionomycin activation.
Experiment [6] shares this test system. In words: CHMC low cell density IgE activation: tryptase and LTC4 assays. The conditions noted are these: Homo sapiens, Mast cell, Low Density CHMC, anti-IgE activation. The procedure, abridged: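 Degranulation measured after 30 min anti-IgE challenge at 37° C of CHMC plated at 1000-1500 cells/well following 1 h preincubation. Readouts: LTC4 by ELISA on donor-specific diluted supernatants, and tryptase activity from a 30 min room-temperature substrate reaction.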

[7] abbreviates: hexosaminidase readout, read-out: CHMC Ionomycin Hexos.
The mark [8] stands for this setting: hexosaminidase readout, read-out: CHMC anti-IgE Hexos.

In experiment [1], `O=C(c1cc2cc(Nc3ncc(F)c(Nc4cccc(O)c4)n3)ccc2o1)N1CCNCC1` [Compound R926502, 5-Fluoro-N4-(3-hydroxyphenyl)-N2-[2-(N-piperazino)carbonylbenzofuran-5-yl]-2,4-pyrimidinediamine Hydrogen Chloride Salt] came in with an IC50 of more than 10 µM.
Consider `Fc1cnc(Nc2ccc3c(c2)OC(F)(F)C(F)(F)O3)nc1Nc1ccc2c(c1)OC(F)(F)C(F)(F)O2` [Compound R926037, N2,N4-Bis(3,4-tetrafluoroethylendioxyphenyl)-5-fluoro-2,4-pyrimidinediamine], for which the IC50 in experiment [2], in experiment [3] and in experiment [1] was more than 10 µM throughout.
For the compound `CCOc1ccc(Nc2cc(C(=O)OC)nc(Nc3ccc(OCC)cc3)n2)cc1` [Compound R926058, N2,N4-Bis(4-ethoxyphenyl)-6-methoxycarbonyl-2,4-pyrimidinediamine], the IC50 in experiment [2] (Mus musculus), in experiment [3] (Homo sapiens), in experiment [4] and in experiment [1] (Homo sapiens) was more than 10 µM each time.
Take `Fc1cnc(Nc2cccc(Cl)c2)nc1Nc1cccc(Cl)c1` [Compound R926209, N2,N4-Bis(3-chlorophenyl)-5-fluoro-2,4-pyrimidinediamine]: the IC50 in experiment [2] (Mus musculus) is 9.1 µM; in experiment [3] (Homo sapiens), more than 10 µM; in experiment [4], 10 µM; in experiment [1] (Homo sapiens) it was more than 10 µM.
Consider `Fc1cnc(Nc2ccc(C(F)(F)F)cc2)nc1Nc1ccc(C(F)(F)F)cc1` [Compound R926016, N2,N4-Bis(4-trifluoromethylphenyl)-5-fluoro-2,4-pyrimidinediamine], for which the IC50 in experiment [2] (Mus musculus), in experiment [3] (Homo sapiens), in experiment [4] and in experiment [1] (Homo sapiens) was more than 10 µM in each case.
Regarding `CCOc1ccc(Nc2nc(Nc3ccc4c(c3)OCCO4)ncc2F)cc1` [Compound R926213, N4-(4-Ethoxyphenyl)-N2-(3,4-ethylenedioxyphenyl)-5-fluoro-2,4-pyrimidinediamine], the IC50 was 1.75 µM in experiment [3] (Homo sapiens); 5.5 µM in experiment [5] (tryptase readout, read-out: CHMC Ionomycin Tryptase); more than 10 µM in experiment [1] (Homo sapiens); 1.64 µM in experiment [6] (tryptase readout, read-out: CHMC anti-IgE Tryptase).
For `O=C(c1cc2cc(Nc3ncc(F)c(Nc4ccc5c(c4)OCCO5)n3)ccc2o1)N1CCNCC1` [Compound R926501, N4-(3,4-Ethylenedioxyphenyl)-5-fluoro-N2-[2-(N-piperazino)carbonylbenzofuran-5-yl]-2,4-pyrimidinediamine Hydrogen Chloride Salt], the IC50 in experiment [1] is more than 10 µM.
With `CC(C)(C)c1ccc(Nc2ncc(F)c(Nc3ccc4c(c3)OCCO4)n2)cc1` [Compound R926219, N2-(4-tert-Butylphenyl)-N4-(3,4-ethylenedioxyphenyl)-5-fluoro-2,4-pyrimidinediamine], the IC50 in experiment [2] (Mus musculus) came to 3.2 µM; in experiment [4], 2.5 µM; in experiment [5] (setting [7]) it was 6.7 µM; in experiment [6] (setting [8]), 1.1 µM.
As to `CN(C)c1ccc(Nc2ncc(F)c(Nc3ccc(N(C)C)cc3)n2)cc1` [Compound R926086, N2,N4-Bis[4-(N,N-dimethylamino)phenyl]-5-fluoro-2,4-pyrimidinediamine], the IC50 in experiment [2] (Mus musculus) is 7.3 µM; in experiment [3] (Homo sapiens) it was 2.5 µM; in experiment [4] it was 2.8 µM; in experiment [1] (Homo sapiens), more than 10 µM.
In the case of `CC(C)(C)c1ccc(Nc2ncc(F)c(Nc3ccc(C(C)(C)C)cc3)n2)cc1` [Compound R926222, N2,N4-Bis(4-tert-butylphenyl)-5-fluoro-2,4-pyrimidinediamine], the IC50 in experiment [2] (Mus musculus), in experiment [4] and in experiment [6] (setting [8]) was more than 10 µM throughout.
With `CCOc1ccc(Nc2cc(Cl)nc(Nc3ccc(OCC)cc3)n2)cc1` [Compound R926072, N2,N4-Bis(4-ethoxyphenyl)-6-chloro-2,4-pyrimidinediamine], the IC50 in experiment [2] (Mus musculus), in experiment [4] and in experiment [6] (setting [8]) was more than 10 µM in each case.
On to `Fc1cnc(Nc2cccc(OC(F)(F)F)c2)nc1Nc1cccc(OC(F)(F)F)c1` [Compound R926038, N2,N4-Bis(3-trifluoromethoxyphenyl)-5-fluoro-2,4-pyrimidinediamine], for which the IC50 in experiment [2] (Mus musculus), in experiment [3] (Homo sapiens), in experiment [4] and in experiment [1] (Homo sapiens) was more than 10 µM throughout.
On to `Fc1cnc(Nc2ccc(Cl)cc2)nc1Nc1ccc(Cl)cc1` [Compound R926206, N2,N4-Bis(4-chlorophenyl)-5-fluoro-2,4-pyrimidinediamine], for which the IC50 is 8.6 µM in experiment [2] (Mus musculus), more than 10 µM in experiment [3] (Homo sapiens), 6.6 µM in experiment [4] and more than 10 µM in experiment [1] (Homo sapiens).
Take `Fc1cnc(Nc2ccc(Cl)c(C(F)(F)F)c2)nc1Nc1ccc(Cl)c(C(F)(F)F)c1` [Compound R926039, N2,N4-Bis(4-chloro-3-trifluoromethylphenyl)-5-fluoro-2,4-pyrimidinediamine]: the IC50 in experiment [2] (Mus musculus), in experiment [3] (Homo sapiens), in experiment [4] and in experiment [1] (Homo sapiens) was more than 10 µM each time.
Regarding `Fc1ccc(Nc2ncc(F)c(Nc3ccc(F)c(Cl)c3)n2)cc1Cl` [Compound R926223, N2,N4-Bis(3-chloro-4-fluorophenyl)-5-fluoro-2,4-pyrimidinediamine], the IC50 in experiment [2] (Mus musculus), in experiment [4] and in experiment [6] (setting [8]) was more than 10 µM in each case.
As to `Fc1cc(Nc2ncc(F)c(Nc3ccc(C(F)(F)F)c(F)c3)n2)ccc1C(F)(F)F` [Compound R926018, N2,N4-Bis(3-fluoro-4-trifluoromethylphenyl)-5-fluoro-2,4-pyrimidinediamine], the IC50 in experiment [2] (Mus musculus) is more than 10 µM; in experiment [3] (Homo sapiens), more than 10 µM; in experiment [4] it was 8.5 µM; in experiment [1] (Homo sapiens), 10 µM.
In the case of `COc1ccc(Nc2nc(Nc3cccc(O)c3)ncc2F)cc1OC` [Compound R926147, N4-(3,4-Dimethoxyphenyl)-5-fluoro-N2-(3-hydroxyphenyl)-2,4-pyrimidinediamine], the IC50 was 7.1 µM in experiment [2] (Mus musculus), 2 µM in experiment [4], more than 10 µM in experiment [5] (setting [7]) and 1.9 µM in experiment [6] (setting [8]).
For `CCOc1ccc(Nc2ncc(F)c(Nc3ccc(OC)c(OC)c3)n2)cc1` [Compound R926145, N4-(3,4-Dimethoxyphenyl)-N2-(4-ethoxyphenyl)-5-fluoro-2,4-pyrimidinediamine] the same measures were 8.8 µM, 2.4 µM, more than 10 µM and 4.76 µM.
